Structures are written as SMILES.

Common to all, as to assay type: biochemical
In assay [1] the target is rat sucrase (partially purified alpha-glucosidase from intestinal rat powder) (Rattus norvegicus, UniProt P23739). In words: Intestinal alpha-glucosidase assay, sucrose substrate (Glucose GO Kit). An outline of the steps:
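Enzyme from intestinal rat powder, partially purified, is exposed to compound for 60 min at 37 °C. Disaccharide substrate (maltose or sucrose respectively) then reacts 30 min at 37 °C. Heat-stopped samples are assayed for glucose, and percent inhibition versus concentration gives IC50 via 4-PL.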

Assay [2] concerns the target rat maltase (partially purified alpha-glucosidase from intestinal rat powder). In words: Intestinal alpha-glucosidase assay, maltose substrate (Glucose GO Kit). An outline of the steps:
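Glucose release is the read-out: compounds at multiple dilutions are first held with partially purified rat intestinal alpha-glucosidase for 60 min at 37 °C, after which maltose or sucrose substrate reacts for 30 min at 37 °C before a 5 min 90 °C stop. IC50 comes from a four-parameter logistic fit.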

The target in assay [3] is T1, recombinant human GBA (beta-glucocerebrosidase) (Homo sapiens, UniProt P04062).
T1 sequence (P04062 40-536): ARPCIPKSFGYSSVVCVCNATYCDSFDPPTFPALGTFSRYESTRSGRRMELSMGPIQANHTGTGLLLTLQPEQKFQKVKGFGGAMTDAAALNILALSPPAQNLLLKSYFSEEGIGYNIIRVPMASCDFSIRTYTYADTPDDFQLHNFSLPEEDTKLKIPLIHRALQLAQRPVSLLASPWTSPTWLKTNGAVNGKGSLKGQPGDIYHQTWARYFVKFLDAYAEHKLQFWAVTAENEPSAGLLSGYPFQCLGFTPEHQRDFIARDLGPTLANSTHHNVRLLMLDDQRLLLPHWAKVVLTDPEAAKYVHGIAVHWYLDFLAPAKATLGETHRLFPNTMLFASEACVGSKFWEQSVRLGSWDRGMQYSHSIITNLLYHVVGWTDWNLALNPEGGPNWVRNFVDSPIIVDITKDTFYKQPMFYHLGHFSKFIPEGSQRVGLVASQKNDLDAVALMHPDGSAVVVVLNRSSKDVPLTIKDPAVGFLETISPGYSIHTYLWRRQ
In words: Beta-glucocerebrosidase (GBA, glucosylceramidase) assay (4-methylumbelliferyl-beta-D-pyranoside substrate, fluorescence). The gist of the method:
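Recombinant human GBA preincubated with compound dilutions 60 min at 37 °C, then 4-methylumbelliferyl-beta-D-pyranoside added for 60 min at 37 °C. Stopped at pH 10 (glycine/NaOH); fluorescence ex 365/em 440 nm. IC50 from 4-PL fit of inhibition relative to untreated enzyme.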

Sequence of rat sucrase (partially purified alpha-glucosidase from intestinal rat powder) (P23739 whole entry): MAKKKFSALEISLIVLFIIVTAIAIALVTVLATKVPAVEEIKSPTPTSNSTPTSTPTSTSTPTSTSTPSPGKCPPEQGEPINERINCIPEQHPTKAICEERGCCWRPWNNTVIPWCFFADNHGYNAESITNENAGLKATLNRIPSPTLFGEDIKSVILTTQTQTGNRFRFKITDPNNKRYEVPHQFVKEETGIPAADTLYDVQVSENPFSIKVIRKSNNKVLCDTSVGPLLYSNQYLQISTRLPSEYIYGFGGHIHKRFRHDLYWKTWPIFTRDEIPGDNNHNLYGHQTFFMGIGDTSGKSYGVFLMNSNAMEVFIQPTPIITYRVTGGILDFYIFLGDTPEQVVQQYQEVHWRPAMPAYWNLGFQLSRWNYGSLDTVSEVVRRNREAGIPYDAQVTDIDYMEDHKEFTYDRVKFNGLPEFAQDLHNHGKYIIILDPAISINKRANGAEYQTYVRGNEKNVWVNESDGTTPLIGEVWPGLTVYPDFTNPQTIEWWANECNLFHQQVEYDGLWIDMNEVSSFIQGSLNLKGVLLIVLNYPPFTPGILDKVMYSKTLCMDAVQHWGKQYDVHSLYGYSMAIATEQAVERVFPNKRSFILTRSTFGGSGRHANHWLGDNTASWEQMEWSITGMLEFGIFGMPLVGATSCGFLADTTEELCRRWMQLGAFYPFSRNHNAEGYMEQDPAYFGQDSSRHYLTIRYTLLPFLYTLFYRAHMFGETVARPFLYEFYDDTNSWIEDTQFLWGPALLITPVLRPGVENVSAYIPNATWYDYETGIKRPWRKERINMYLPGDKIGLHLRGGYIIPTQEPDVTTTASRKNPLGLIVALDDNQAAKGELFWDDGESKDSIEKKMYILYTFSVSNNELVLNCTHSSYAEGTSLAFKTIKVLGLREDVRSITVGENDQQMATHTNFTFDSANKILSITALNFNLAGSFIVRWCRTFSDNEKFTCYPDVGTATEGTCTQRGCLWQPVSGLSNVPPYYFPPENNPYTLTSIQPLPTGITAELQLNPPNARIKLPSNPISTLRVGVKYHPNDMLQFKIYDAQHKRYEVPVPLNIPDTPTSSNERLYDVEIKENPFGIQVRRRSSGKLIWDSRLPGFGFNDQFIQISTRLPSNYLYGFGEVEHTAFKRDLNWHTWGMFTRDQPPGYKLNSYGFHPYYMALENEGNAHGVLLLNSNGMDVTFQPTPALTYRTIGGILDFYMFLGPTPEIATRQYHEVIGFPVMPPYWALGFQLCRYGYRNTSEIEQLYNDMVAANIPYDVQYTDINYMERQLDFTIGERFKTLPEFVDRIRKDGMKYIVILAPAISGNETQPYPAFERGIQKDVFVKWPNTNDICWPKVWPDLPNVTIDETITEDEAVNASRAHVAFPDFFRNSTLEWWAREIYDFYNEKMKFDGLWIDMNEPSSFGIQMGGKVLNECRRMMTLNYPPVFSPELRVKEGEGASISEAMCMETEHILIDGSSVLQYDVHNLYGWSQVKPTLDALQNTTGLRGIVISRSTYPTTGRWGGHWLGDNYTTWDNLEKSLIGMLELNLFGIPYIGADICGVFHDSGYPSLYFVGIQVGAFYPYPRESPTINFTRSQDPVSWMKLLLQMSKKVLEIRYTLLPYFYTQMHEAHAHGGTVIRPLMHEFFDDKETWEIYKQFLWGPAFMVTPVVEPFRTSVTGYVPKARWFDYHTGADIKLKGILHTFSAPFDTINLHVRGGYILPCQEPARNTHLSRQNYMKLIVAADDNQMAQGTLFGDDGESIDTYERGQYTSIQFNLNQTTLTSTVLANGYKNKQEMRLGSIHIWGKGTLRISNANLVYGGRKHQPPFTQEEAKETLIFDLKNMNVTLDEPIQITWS

`Cc1cc(NCc2ccc(CN3C[C@H](O)[C@@H](O)[C@H](O)[C@H]3CO)cc2)cc(-c2ccc[nH]2)c1` [Compound 1051, (2R,3R,4R,5S)-2-(hydroxymethyl)-1-{[4-({[3-methyl-5-(1H-pyrrol-2-yl)phenyl]amino}methyl)phenyl]methyl}piperidine-3,4,5-triol]: the values for the IC50 in assay [1], in assay [2] and in assay [3] were below 1 nM, below 1 nM and 15000 nM, respectively.
Regarding `COc1cc(NCCc2ccc(CCN3C[C@H](O)[C@@H](O)[C@H](O)[C@H]3CO)cc2)cc(-c2noc(C3CCC3)n2)c1` [Compound 1120, (2R,3R,4R,5S)-1-{2-[4-(2-{[3-(5-cyclobutyl-1,2,4-oxadiazol-3-yl)-5-methoxyphenyl]amino}ethyl)phenyl]ethyl}-2-(hydroxymethyl)piperidine-3,4,5-triol], the IC50 is 506 nM in assay [1], 186 nM in assay [2] and 13 nM in assay [3].
For `O=[N+]([O-])c1cc(-c2ncco2)ccc1NCCc1ccc(CCN2C[C@H](O)[C@@H](O)[C@H](O)[C@H]2CO)cc1` [Compound 1112, (2R,3R,4R,5S)-2-(hydroxymethyl)-1-{2-[4-(2-{[2-nitro-4-(1,3-oxazol-2-yl)phenyl]amino}ethyl)phenyl]ethyl}piperidine-3,4,5-triol], the IC50 in assay [1] came out at 915 nM; in assay [2], 1 nM; in assay [3], 4990 nM.
For `CS(=O)(=O)c1cc(NCc2ccc(CN3C[C@H](O)[C@@H](O)[C@H](O)[C@H]3CO)cc2)cc(N2CCOCC2)c1` [Compound 1054, (2R,3R,4R,5S)-2-(hydroxymethyl)-1-{[4-({[3-methanesulfonyl-5-(morpholin-4-yl)phenyl]amino}methyl)phenyl]methyl}piperidine-3,4,5-triol], the half-maximal inhibitory concentration (IC50) is 160 nM in assay [1], 57 nM in assay [2] and above 100000 nM in assay [3].
Turning to `O=[N+]([O-])c1cc(-c2cccnn2)ccc1NCc1ccc(CN2C[C@H](O)[C@@H](O)[C@H](O)[C@H]2CO)cc1` [Compound 1101, (2R,3R,4R,5S)-2-(hydroxymethyl)-1-{[4-({[2-nitro-4-(pyridazin-3-yl)phenyl]amino}methyl)phenyl]methyl}piperidine-3,4,5-triol], the 50% inhibitory concentration (IC50) was 4 nM in assay [1], below 1 nM in assay [2] and 32700 nM in assay [3].
For the molecule `OC[C@@H]1[C@@H](O)[C@H](O)[C@@H](O)CN1CCCCCCNc1cc(C2CC2)cc(N2CCOCC2)c1` [Compound 1006, (2R,3R,4R,5S)-1-(6-{[3-cyclopropyl-5-(morpholin-4-yl)phenyl]amino}hexyl)-2-(hydroxymethyl)piperidine-3,4,5-triol], the half-maximal inhibitory concentration (IC50) in assay [1] is 116 nM; in assay [2] it was 10 nM; in assay [3], 618 nM.
As for `N#Cc1cc(NCc2ccc(CN3C[C@H](O)[C@@H](O)[C@H](O)[C@H]3CO)cc2)cc(-c2cccnn2)c1` [Compound 1064, 3-(pyridazin-3-yl)-5-{[(4-{[(2R,3R,4R,5S)-3,4,5-trihydroxy-2-(hydroxymethyl)piperidin-1-yl]methyl}phenyl)methyl]amino}-benzonitrile], the IC50 in assay [1] is 26 nM; in assay [2] it was 2 nM; in assay [3], 53700 nM.
Taken in the same sequence, the figures for `Cc1cc(NCc2ccc(CN3C[C@H](O)[C@@H](O)[C@H](O)[C@H]3CO)cc2)cc(-c2ncccn2)c1` [Compound 1053, (2R,3R,4R,5S)-2-(hydroxymethyl)-1-{[4-({[3-methyl-5-(pyrimidin-2-yl)phenyl]amino}methyl)phenyl]methyl}piperidine-3,4,5-triol] were 23 nM, 2 nM and above 100000 nM.
For `[N-]=[N+]=Nc1ccc(NCC[C@H]2CC[C@H](CCN3C[C@H](O)[C@@H](O)[C@H](O)[C@H]3CO)CC2)c([N+](=O)[O-])c1` [Compound 1107, (2R,3R,4R,5S)-2-(hydroxymethyl)-1-{2-[(1r,4r)-4-{2-[(4-azido-2-nitrophenyl)amino]ethyl}cyclohexyl]ethyl}piperidine-3,4,5-triol], the IC50 came out at 576 nM in assay [1], 249 nM in assay [2] and 362 nM in assay [3].
Regarding `O=C(O)c1cc(Cl)cc(NCCc2ccc(CCN3C[C@H](O)[C@@H](O)[C@H](O)[C@H]3CO)cc2)c1` [Compound 1117, 3-chloro-5-{[2-(4-{2-[(2R,3R,4R,5S)-3,4,5-trihydroxy-2-(hydroxymethyl)piperidin-1-yl]ethyl}phenyl)ethyl]amino}benzoic acid], the IC50 in assay [1] came out at 483 nM; in assay [2] it was 218 nM; in assay [3], 18100 nM.
Taken in the same sequence, the figures for `COC(=O)c1cc(Cl)cc(NCCc2ccc(CCN3C[C@H](O)[C@@H](O)[C@H](O)[C@H]3CO)cc2)c1` [Compound 1116, methyl 3-chloro-5-{[2-(4-{2-[(2R,3R,4R,5S)-3,4,5-trihydroxy-2-(hydroxymethyl)piperidin-1-yl]ethyl}phenyl)ethyl]amino}benzoate] were 1230 nM, 162 nM and 904 nM.
Taken in the same sequence, the figures for `OC[C@@H]1[C@@H](O)[C@H](O)[C@@H](O)CN1Cc1ccc(CNc2ccc(-c3ccc[nH]3)cc2)cc1` [Compound 1094, (2R,3R,4R,5S)-2-(hydroxymethyl)-1-{[4-({[4-(1H-pyrrol-2-yl)phenyl]amino}methyl)phenyl]methyl}piperidine-3,4,5-triol] were 57 nM, 19 nM and 12300 nM.
Turning to `O=[N+]([O-])c1cc(N2CCOCC2)ccc1NCc1ccc(CN2C[C@@H](O)[C@H](O)[C@@H](O)[C@@H]2CO)cc1` (stereo in doubt) [Compound 1069, (2S,3S,4S,5R)-2-(hydroxymethyl)-1-{[4-({[4-(morpholin-4-yl)-2-nitrophenyl]amino}methyl)phenyl]methyl}piperidine-3,4,5-triol], the IC50 is 8 nM in assay [1], below 1 nM in assay [2] and 3090 nM in assay [3].
`[N-]=[N+]=Nc1ccc(NCCc2cc(CCN3C[C@H](O)[C@@H](O)[C@H](O)[C@H]3CO)cc(C3CCCCC3)c2)c([N+](=O)[O-])c1` [Compound 1115, (2R,3R,4R,5S)-1-[2-(3-{2-[(4-azido-2-nitrophenyl)amino]ethyl}-5-cyclohexylphenyl)ethyl]-2-(hydroxymethyl)piperidine-3,4,5-triol]: the values for the IC50 in assay [1], in assay [2] and in assay [3] were 10500 nM, 6740 nM and 407 nM, respectively.
In the case of `O=[N+]([O-])c1cc(C2=COCCO2)ccc1NCc1cccc(CN2C[C@H](O)[C@@H](O)[C@H](O)[C@H]2CO)c1` [Compound 1087, (2R,3R,4R,5S)-1-{[3-({[4-(5,6-dihydro-1,4-dioxin-2-yl)-2-nitro-phenyl]amino}methyl)phenyl]methyl}-2-(hydroxymethyl)piperidine-3,4,5-triol], the IC50 is below 1 nM in assay [1], 4 nM in assay [2] and above 100000 nM in assay [3].
`O=[N+]([O-])c1cc(-c2cccnn2)ccc1NCc1cccc(CN2C[C@H](O)[C@@H](O)[C@H](O)[C@H]2CO)c1` [Compound 1089, (2R,3R,4R,5S)-2-(hydroxymethyl)-1-{[3-({[2-nitro-4-(pyridazin-3-yl)phenyl]amino}methyl)phenyl]methyl}piperidine-3,4,5-triol]: the IC50 in assay [1] came to 23 nM; in assay [2], 36 nM; in assay [3], 97100 nM.
The like results for `O=[N+]([O-])c1cc(-c2ccc[nH]2)ccc1NCc1ccc(CN2C[C@H](O)[C@@H](O)[C@H](O)[C@H]2CO)cc1` [Compound 1100, (2R,3R,4R,5S)-2-(hydroxymethyl)-1-{[4-({[2-nitro-4-(1H-pyrrol-2-yl)phenyl]amino}methyl)phenyl]methyl}piperidine-3,4,5-triol] were, in that order, 2 nM, below 1 nM and 41700 nM.
As for `O=[N+]([O-])c1cc(C2=COCCO2)ccc1NCc1ccc(CN2C[C@H](O)[C@@H](O)[C@H](O)[C@H]2CO)cc1` [Compound 1099, (2R,3R,4R,5S)-1-{[4-({[4-(5,6-dihydro-1,4-dioxin-2-yl)-2-nitrophenyl]amino}methyl)phenyl]methyl}-2-(hydroxymethyl)piperidine-3,4,5-triol], the IC50 in assay [1] is below 1 nM; in assay [2], below 1 nM; in assay [3], 37100 nM.
For the molecule `Cc1cc(CN2CCOCC2)cc(NCc2ccc(CN3C[C@H](O)[C@@H](O)[C@H](O)[C@H]3CO)cc2)c1` [Compound 1005, (2R,3R,4R,5S)-2-(hydroxymethyl)-1-({4-[({3-methyl-5-[(morpholin-4-yl)methyl]phenyl}amino)methyl]phenyl}methyl)piperidine-3,4,5-triol], the IC50 is 661 nM in assay [1], 58 nM in assay [2] and above 100000 nM in assay [3].

For the origin of these results see patent US20250197372A1 (priority 2020, published 2025).
